What follows are compounds tested on benzodiazepine site of GABAARs (assay: [3H]flunitrazepam binding in rat cortical membrane homogenates). Details: comparative experiments.
Method: Standard procedures for preparation of rat cortical membranes for radioligand binding assays were conducted as previously described with modifications in speed and number of centrifugation and washes, and buffer compositions. […] Naïve rat cortex was dissected from brain and homogenized in 0.32 M sucrose, 10 mM HEPES buffer (pH 7.4), and centrifuged at 650×g, 4° C. The subsequent supernatant was centrifuged at 150,000×g to collect the desired membrane-containing pellet. The pellet was washed and centrifuged two more times, first using ice-cold water and second using membrane buffer containing 50 mM KH2PO4, 1 mM EDTA, 2 mM benzamidine HCl, 0.5 mM DTT, 0.1 mM benzethonium HCl, 0.01% bacitracin, 0.2 PMSF (pH 7.4), and the resulting pellet was frozen. On the day of binding assay, the pellet was homogenized in assay buffer containing 50 mM KH2PO4, 1 mM EDTA, 200 mM KCl (pH 7.4) and centrifuged, and resuspended in fresh assay buffer to a final protein concentration of 1 mg/ml. […] Specific binding was defined as the total amount bound (zero unlabeled ligand) minus the binding in the presence of 10 μM final concentration flurazepam (Sigma). Data was analyzed with GraphPad Prism 4.0 Software (San Diego, Calif.) to determine IC50 (One-site competition equation) and Hill slope (Sigmoidal Dose-Response equation). Experiments were conducted in triplicate.

O=c1c(-c2ccc(O)cc2)coc2cc(O)ccc12 [daidzein] was tested. Which “binding to GABAARs in [3H]flunitrazepam binding assay” value (shortened to “binding to GABAARs”) did it give?
Its value is “bind GABAARs”.

For O=c1c(-c2ccc(O)cc2)coc2cc(O)cc(O)c12 [genistein], which “binding to GABAARs” value is on record?
Its value is “do not bind”.

Which “binding to GABAARs” value does the source give for O=c1c(O)c(-c2cc(O)c(O)c(O)c2)oc2cc(O)cc(O)c12 [myricetin] here?
The value was “do not bind”.

Which “binding to GABAARs” value does the source give for O=c1c(-c2ccc(O)cc2)coc2c([C@@H]3O[C@H](CO)[C@@H](O)[C@H](O)[C@H]3O)c(O)ccc12 [puerarin] here?
The value was “do not bind”.
